Like-named read-outs stand apart in the source and are kept apart here.
Legend:
[1] = test system: liver cells; assay: Mitigation of decrease in glutathione levels in liver cells on coexistence with D,L-buthionine sulfoximine; format: cell-based, mice; details: 13 hours later, 100 = before addition
Method: The cultured liver cells were cultured for 13 hours after the addition of D,L-buthionine sulfoximine to the concentration of 0.3 mM and the present compound to the concentration of 1 mM and then the levels of cellular glutathione were measured. The similar measurements were made on the controls in which nothing was added and in which D,L-buthionine sulfoximine only was added.

[2] = test system: liver cells; assay: Recovery of cellular glutathione levels after decrease by D,L-buthionine sulfoximine and removal of the inhibitor; format: cell-based, mice; details: untreated = 100
Method: (§1) D, L-buthionine sulfoximine was added to the cultured liver cells to a density of 0.5 mM and cultivation was carried on for 16 hours. […] The changes of cellular glutathione levels were measured at that time. Thereafter the compounds studied were removed from the respective cultures whose culture media were then replaced with new ones containing carbon tetrachloride at a density of 0.5 μl/ml. After 1-hour cultivation, the action to prevent the necrosis of liver cells was examined by measuring the GPT activity of the respective culture supernatants and Trypan Blue staining test.
(§2) In Table 3, the changes of cellular glutathione levels are expressed by relative values based on the untreated value set at 100 and the action to prevent the necrosis of liver cells is indicated by the GPT activity of the culture supernatant and survival rate.

[3] = test system: liver cells; assay: Prevention of necrosis of liver cells by carbon tetrachloride (GPT activity, Trypan Blue staining); format: cell-based, mice; details: 1 mM for 2 hours after D,L-buthionine sulfoximine removal, then carbon tetrachloride 0.5 μl/ml for 1 hour; for Survival rate: Trypan Blue
Method: as §1, §2

[4] = test system: experimentally developed cataract induced by L-buthionine sulfoximine; assay: Protective effect on experimental cataract induced by L-buthionine sulfoximine; format: in vivo, mice; details: 16th day after birth
Source text: The cataract development rate in the table means the ratio of the experimental animals developing cataract to all the animals examined (11 to 12 mice per group) and the cataractous eye rate means the ratio of cataractous eyes to the whole number of eyes examined.

[5] = test system: mouse newborns; details: for Surviving rate: after the ending of administration; for Effect on increment of animals' body weight suppressed by the toxicity of BSO: mouse, in vivo
Method: Experimental cataract was prepared according to the method of Calvin et al., Science, vol. 233, pp 553-555 (1986). More particularly, L-buthioninesulfoximine was administered subcutaneously to the ICR male mice at a dose of 4 mmol/kg for 3 successive days from the 9th day to the 11th day after birth every 2.5 hours 4 times a day to cause cataract. The rate of cataractgenesis was determined on the 16th day after birth. The test compounds were also given subcutaneously for 3 days from the 9th day to the 11th day after birth 4 times a day 1 hour before the administration of L-buthionine sulfoximine and thereafter the test compounds studied only were subcutaneously given 4 times a day at an interval of 2.5 hours on the consecutive 12th and 13th days after birth and the protective effect of the test compound on cataract formation was examined on the 16th day after birth. As the control compounds, glutathione, glutathione monoethyl ester, and γ-L-glutamyl-L-cysteine were also examined.
Acute toxicity of the present compound was examined where it is administered according to the schedule of Example 9 and compared with there of controls, glutathione, glutathione monoethyl ester, and γ-L-glutamyl-L-cysteine.

[6] = cited from earlier work
[7] = test system: liver cells; assay: Recovery of glutathione levels of liver cells after carbon tetrachloride treatment; format: cell-based, mice; details: 100 = before treatment
Method: After carbon tetrachloride was added to the cultured liver cells at a concentration of 0.5 μl/ml, culture was continued for 1 hour. […] One hour later, the change of the cellular glutathione level was measured.

[8] = test system: liver cells; assay: Action to increase the glutathione levels in the liver cells (primary cultured hepatocytes); format: cell-based, mice; details: 1 mM, 100 = before addition
Method: Hepatocyte (sample) was prepared according to the method of Nakamura et al. published in the Protein, Nucleic Acid, and Enzyme, vol. 24, pp 55-76 (1981), partly adopting the method of Wang et al. reported in the In Vitro, vol. 21, pp 526-530 (1985). The liver of mice was purfused with 0.05% collagenase, and cells were collected by centrifugation, and were further centrifuged with percoll to collect the parenchymal hepatocytes. The obtained hepatocytes were dispersed in the Williams' medium E containing 10% bovine fetal serum, dexamethasone (10^-6 M), insulin (1 μg/ml), and antibiotic, and were inoculated into the culture plate at a density of 1×10^5 cells/0.2 ml/cm^2. After unattached cells were removed once 1.5 hours later, the cultivation was continued at 37° C. in an atomosphere of 5% CO2 -95% air. The compound of this invention was added to the culture system to a concentration of 1 mM to measure the time lapsed changes of the cellular glutathione level according to the method reported by Owens and Belcher, Biochem. J., vol. 94, pp 705-711 (1965) and Tietze, Anal. Biochem., vol. 27, pp 502-522 (1969). The similar measurements were also made without the addition of the compound for comparison.

[9] = test system: ICR male mice; assay: Action to increase tissue glutathione levels in mice; format: in vivo; details: 9-day old mice
Method: ICR male mice (9-day old) were subcutaneously given 2.5 mmol/kg of the compound of this invention (r-Glu-Cys OET) or control compounds (glutathione (GSH), γ-L-glutamyl-L-cysteine (r-Glu-Cys)) four times at 2.5-hour intervals. The mice were dissected and their livers and kidneys were removed before the administration and every 2.5 hour after the administration to have their glutathione (GSH) level determined. […]

[10] = test system: ICR male mice; assay: Mitigation of decrease of tissue glutathione levels, compound and L-buthionine sulfoximine given alternately to mice; format: in vivo; details: 2.5 mmol/kg s.c. alternately with L-buthionine sulfoximine 4 mmol/kg; versus saline
Method: The compound of this invention was administered in the same way as Example 6, and L-buthionine sulfoximine (BSO) was administered likewise in dosage of 4 mmol/kg one hour after every administration of said compound. The contents of glutathione in the livers and kedneys were measured according to the methods described in Example 6 every 2.5 hours after the initial administration of the present compound. As controls, saline was administered in place of the present compound to take the similar measurements. FIGS. 2A and 2B shown the results.

[11] = test system: ICR male mice; assay: Recovery of tissue glutathione levels in mice pretreated with L-buthionine sulfoximine; format: in vivo; details: 2.5 mmol/kg s.c. 4 times, day after L-buthionine sulfoximine 4 mmol/kg x4
Method: ICR male mice (9-day old) were given L-buthionine sulfoximine in dosage of 4 mmol/kg four times at an interval of 2.5 hours to decrease their tissue glutathione levels beforehand. The next day, the mice were given subcutaneously 2.5 mmol/kg of the present compound or saline 4 times at an interval of 2.5 hours. Glutathione monoethyl ester (GSHOET) was also given likewise in dosage of 2.5 mmol/kg as a control. The contents of glutathione in the livers and kidneys were measured according to the methods described in Example 6.

[12] = test system: ICR male mice; assay: Detoxification of renal toxicity induced by cisplatin (BUN); format: in vivo; details: cisplatin 20 mg/kg i.p. + compound 2.5 mmol/kg i.p. 4 times a day for 5 days; one week after cisplatin
Source text: The control groups were given saline instead of the present compound.

[13] = 1 mM added for 2 hours after removal of D,L-buthionine sulfoximine (0.5 mM, 16 hours)
[14] = L-buthionine sulfoximine + compound 1.25 mmol/kg s.c.
[15] = L-buthionine sulfoximine + compound 1.25 mmol/kg
[16] = L-buthionine sulfoximine + compound 2.5 mmol/kg
[17] = L-buthionine sulfoximine 4 mmol/kg alone
[18] = L-buthionine sulfoximine + compound 2.50 mmol/kg s.c.
[19] = 2.5 mmol/kg subcutaneously four times at 2.5-hour intervals

In the case of CCCCS(=N)(=O)CCC(N)C(=O)O [D,L-buthionine sulfoximine, D,L-buthionine-sulfoximine, reference compound], the “Cellular glutathione level (relative value)” value ([1]; D,L-buthionine sulfoximine 0.3 mM alone) was 17 and the “Cellular glutathion level (relative value)” value ([2]; D,L-buthionine sulfoximine 0.5 mM, 16 hours) was 1.
With N[C@@H](CCC(=O)N[C@@H](CS)C(=O)NCC(=O)O)C(=O)O [Glutathione, glutathione] the “Cellular glutathion level (relative value)” value [2, 13] was 10, the “GPT activity of culture supernatant” value [3] was 60 until/ml and the Survival rate [3] was 10%. For the same compound, the Cataract development rate [4, 14] was 75.0%, the Cataractous eye rate [4, 14] was 70.8% and the Surviving rate [5, 15] was 100%. The Surviving rate [5, 16] was 50%, the “Effect on increment of animals' body weight suppressed by the toxicity of BSO” value (from here on “Effect on increment”) [5] was “such effect was not seen” and the “half life in blood” value [6] was “several minutes”.
CCCCS(=N)(=O)CCC(N)C(=O)O [L-buthionine sulfoximine, reference compound] showed a Cataract development rate [4, 17] of 91.7%, a Cataractous eye rate [4, 17] of 91.7% and a Surviving rate [5, 17] of 100%.
For ClC(Cl)(Cl)Cl [carbon tetrachlodie, carbon tetrachloride, reference compound], the “Cellular glutathione level (relative value)” value ([7]; after carbon tetrachloride 0.5 μl/ml, 1 hour) was 33.
Work on CCOC(=O)[C@H](CSSC[C@H](NC(=O)CC[C@H](N)C(=O)O)C(=O)OCC)NC(=O)CC[C@H](N)C(=O)O [γ-L-glutamyl-L-cystein ethyl ester of oxidized type dimer] yielded a Cataract development rate [4, 18] of 30.0%, a Cataractous eye rate [4, 18] of 35.0% and a Surviving rate [5, 16] of 100%.
With CCOC(=O)[C@H](CS)NC(=O)CC[C@H](N)C(=O)O [γ-L-glutamyl-L-cysteine ethyl ester] the “Cellular glutathione level (relative value)” value ([8]; 0.5 hours) was 140, the “Cellular glutathione level (relative value)” value ([8]; 1 hour) was 170 and the “Cellular glutathione level (relative value)” value ([8]; 2 hours) was 200. For the same compound, the “Cellular glutathione level (relative value)” value ([1]; coexistence of D,L-buthionine sulfoximine 0.3 mM and compound 1 mM) was 30, the “Cellular glutathion level (relative value)” value [2, 13] was 50 and the “GPT activity of culture supernatant” value [3] was 3 until/ml. The Survival rate [3] was 100%, the “Cellular glutathione level (relative value)” value ([7]; 1 mM added after removal of carbon tetrachloride, one hour later) was 67 and the “Tissue glutathione level, kidney (FIG. 1B)” value [9, 19] was “far more excellent effect than glutathione and γ-L-glutamyl-L-cysteine in increasing the tissue glutathione levels”. The “Tissue glutathione level, liver (FIG. 1A)” value [9, 19] was “far more excellent effect than glutathione and γ-L-glutamyl-L-cysteine in increasing the tissue glutathione levels”, the “SH levels in eyeballs, DTNB method (FIG. 1C)” value ([9]; 5 mmol/kg) was “improve the SH levels remarkably” and the “Tissue glutathione level, kidney (FIG. 2B)” value [10] was “mitigate the decrease of tissue glutathione levels”. The “Tissue glutathione level, liver (FIG. 2A)” value [10] was “mitigate the decrease of tissue glutathione levels”, the “Recovery of tissue glutathione level, kidney (FIG. 3B)” value [11] was “far more excellent effect in making the tissular glutathion level recover to the normal level as compared with glutathione monoethyl ester” and the “Recovery of tissue glutathione level, liver (FIG. 3A)” value [11] was “same effectiveness as glutathione monoethyl ester”. It also gave a Cataract development rate [4, 14] of 50.0%, a Cataractous eye rate [4, 14] of 41.7% and a Cataract development rate [4, 18] of 0%. For the same compound, the Cataractous eye rate [4, 18] was 0%, the “Effect on increment” value [5] was “showed an effect to mitegate suppressed increment of animals' body weight” and the BUN [12] was 35.7 mg/dL.
For N[C@@H](CCC(=O)N[C@@H](CS)C(=O)O)C(=O)O [γ-L-glutamyl-L-cysteine], the “Cellular glutathion level (relative value)” value [2, 13] was 10, the “GPT activity of culture supernatant” value [3] was 60 until/ml and the Survival rate [3] was 10%. For the same compound, the Cataract development rate [4, 14] was 66.7%, the Cataractous eye rate [4, 14] was 77.8% and the Surviving rate [5, 15] was 75%. The Surviving rate [5, 16] was 0% and the “Effect on increment” value [5] was “such effect was not seen”.

Reference: patent US4927808A, “γ-L-glutamyl-L-cysteine ethyl ester and pharmaceutical compositions containing the same as an effective ingredient” (Teijin Limited, priority 1986, dated 1990)
